Measurements taken from the PolyMetriX glass transition set.

| Compound | glass transition temperature [°C] |
| --- | --- |
| */N=N/c1ccc(C(=O)NCCCCNC(=O)c2ccc(*)cc2)cc1 (repeat unit) | 215.00 |
| *C(=O)NCCN(CCNC(=O)c1ccc(N2C(=O)c3ccc(*)cc3C2=O)cc1)c1ccc(/C=C/c2ccc([N+](=O)[O-])cc2)cc1 (repeat unit) | 178.00 |
| *C(=O)NCCNC(=O)c1ccc(N2C(=O)c3ccc(*)cc3C2=O)cc1 (repeat unit) | 235.00 |
| *C(=O)NNC(=O)c1ccc([Si](c2ccccc2)(c2ccccc2)c2ccc(C(=O)NNC(=O)c3ccc(*)o3)cc2)cc1 (repeat unit) | 252.00 |
| *C(=O)Nc1cc(NC(=O)c2ccc3[nH]c(-c4cc(-c5nc6cc(*)ccc6[nH]5)cc(N5C(=O)c6ccccc6C5=O)c4)nc3c2)cc(-c2nc3ccccc3[nH]2)c1 (repeat unit) | 334.00 |
| *C(=O)Nc1cc(NC(=O)c2ccc3c(c2)C(=O)N(c2cc(-c4nc5ccccc5s4)cc(N4C(=O)c5ccc(*)cc5C4=O)c2)C3=O)cc(-c2nc3ccccc3[nH]2)c1 (repeat unit) | 368.00 |
| *C(=O)Nc1ccc(-c2cc(-c3ccccc3)cc(-c3ccc(NC(=O)c4ccc5c(c4)C(=O)N(c4ccc(Oc6cccc7c(N8C(=O)c9ccc(*)cc9C8=O)cccc67)cc4)C5=O)cc3)n2)cc1 (repeat unit) | 295.00 |
| *C(=O)Nc1ccc(-c2ccc(NC(=O)c3ccc4c(c3)C(=O)N(c3ccc(Oc5ccc(N6C(=O)c7ccc(*)cc7C6=O)cc5-c5ccccc5)c(-c5ccccc5)c3)C4=O)cc2)cc1 (repeat unit) | 358.00 |
| *C(=O)Nc1ccc(-c2ccc(NC(=O)c3ccc4c(c3)C(=O)N(c3ccc(Oc5cccc6c(N7C(=O)c8ccc(*)cc8C7=O)cccc56)cc3)C4=O)cc2)cc1 (repeat unit) | 301.00 |
| *C(=O)c1cc(C(=O)c2ccc3c(c2)C(=O)N(c2cccc(N4C(=O)c5ccc(*)cc5C4=O)c2)C3=O)cc(-c2ccccc2)c1 (repeat unit) | 266.50 |
| *C(=O)c1cc2c(cc1Cl)C(=O)N(c1cc(Cl)cc(N3C(=O)c4cc(*)c(Cl)cc4C3=O)c1)C2=O (repeat unit) | 311.00 |
| *C(=O)c1cc2c(cc1Cl)C(=O)N(c1cccc(N3C(=O)c4cc(*)c(Cl)cc4C3=O)c1)C2=O (repeat unit) | 313.00 |
| *C(=O)c1ccc2c(c1)C(=O)N(c1ccc(-c3ccc(NC(=O)c4cccc(C(=O)Nc5ccc(-c6ccc(N7C(=O)c8ccc(*)cc8C7=O)cc6)cc5)c4)cc3)cc1)C2=O (repeat unit) | 238.00 |
| *CCCCCCCCCCCCCCCCOC(=O)NCc1ccc(CNC(=O)O*)cc1 (repeat unit) | 47.00 |
| *CCCCCCCCCCOc1ccc(-c2cc(-c3ccc(-c4ccccc4)cc3)c(-c3ccc(NC(=O)c4ccc(C(=O)Nc5ccc(-c6c(-c7ccc(-c8ccccc8)cc7)cc(-c7ccc(O*)cc7)cc6-c6ccc(-c7ccccc7)cc6)cc5)cc4)cc3)c(-c3ccc(-c4ccccc4)cc3)c2)cc1 (repeat unit) | 111.00 |
| *CCCCCCOc1ccc(-c2cc(-c3ccc(-c4ccccc4)cc3)c(-c3ccc(NC(=O)c4ccc(C(=O)Nc5ccc(-c6c(-c7ccc(-c8ccccc8)cc7)cc(-c7ccc(O*)cc7)cc6-c6ccc(-c7ccccc7)cc6)cc5)cc4)cc3)c(-c3ccc(-c4ccccc4)cc3)c2)cc1 (repeat unit) | 121.50 |
| *CCCCCNc1nc(NCCCCCc2nc3cc(-c4ccc5[nH]c(*)nc5c4)ccc3[nH]2)nc(N(CC)CC)n1 (repeat unit) | 190.00 |
| *CCCCNC(=O)C(=O)N* (repeat unit) | 120.00 |
| *CCCCOC(=O)NCCCCNC(=O)O* (repeat unit) | 7.00 |
| *CCNC(=O)Nc1ccc(Cc2ccc(NC(=O)NCCOCCO*)cc2)cc1 (repeat unit) | 8.00 |

| Compound | glass transition temperature [°C] |
| --- | --- |
| *CCOCCOCCOCCOc1ccc(C(=O)Nc2cc(NC(=O)c3ccc(O*)cc3)cc(-c3nc4ccccc4[nH]3)c2)cc1 (repeat unit) | 163.00 |
| *NNC(=O)c1ccc(C(=O)NNC(=O)c2ccc([Si](c3ccccc3)(c3ccccc3)c3ccc(C(*)=O)cc3)cc2)c2ccccc12 (repeat unit) | 270.00 |
| *Nc1cc(NC(=O)c2ccc(C(*)=O)cc2)cc(-c2nc3ccccc3[nH]2)c1 (repeat unit) | 267.50 |
| *Nc1cc(NC(=O)c2ccc(C(*)=O)cc2)cc(-c2nc3ccccc3oc2=O)c1 (repeat unit) | 103.00 |
| *Nc1cc(NC(=O)c2ccc(C(*)=O)cc2)cc(C(=O)Oc2ccc(-c3ccccc3)cc2)c1 (repeat unit) | 178.00 |
| *Nc1cc(NC(=O)c2ccc(C(*)=O)cc2)cc(C(=O)Oc2cccc3ccccc23)c1 (repeat unit) | 192.00 |
| *Nc1ccc(-c2c(-c3ccc(-c4ccccc4)cc3)cc(-c3ccc(-c4cc(-c5ccc(-c6ccccc6)cc5)c(-c5ccc(NC(=O)c6ccc(C(*)=O)cc6)cc5)c(-c5ccc(-c6ccccc6)cc5)c4)cc3)cc2-c2ccc(-c3ccccc3)cc2)cc1 (repeat unit) | 305.00 |
| *Nc1ccc(-c2c(-c3ccccc3)cc(-c3ccc(-c4cc(-c5ccccc5)c(-c5ccc(NC(=O)c6ccc(C(*)=O)cc6)cc5)c(-c5ccccc5)c4)cc3)cc2-c2ccccc2)cc1 (repeat unit) | 290.00 |
| *Nc1ccc(-c2ccc(NC(=O)c3cc(C(*)=O)cc(S(=O)(=O)c4ccccc4)c3)cc2)cc1 (repeat unit) | 319.00 |
| *Nc1cccc2c(N[Se]*)cccc12 (repeat unit) | 53.00 |
| *Oc1ccc(S(=O)(=O)c2ccc(Oc3ccc(C(=O)c4cc(I)cc(C(=O)c5ccc(*)cc5)c4)cc3)cc2)cc1 (repeat unit) | 203.00 |
| *c1ccc(-c2ccc(NC(=O)c3cccc(C(=O)Nc4ccc(-c5ccc(N6C(=O)c7ccc(-c8ccc9c(c8)C(=O)N(*)C9=O)cc7C6=O)cc5)cc4)c3)cc2)cc1 (repeat unit) | 230.00 |
| *c1ccc(C(=O)NNC(=O)c2ccc(C(=O)NNC(=O)c3ccc(C4(*)OC(=O)c5ccccc54)cc3)cc2)cc1 (repeat unit) | 237.00 |
| *c1ccc(C(=O)Nc2ccc(-c3cc(Br)ccc3NC(=O)c3ccc(S(*)(=O)=O)cc3)cc2)cc1 (repeat unit) | 288.00 |
| *c1ccc(Oc2ccc(C(=O)c3ccc(-c4ccc(C(=O)c5ccc(Oc6ccc(-c7nc(-c8ccc(-c9nc(*)c(-c%10ccccc%10)[nH]9)cc8)[nH]c7-c7ccccc7)cc6)cc5)cc4)cc3)cc2)cc1 (repeat unit) | 273.00 |
| *c1ccc(Oc2ccc(C(=O)c3ccc(-c4ccc(C(=O)c5ccc(Oc6ccc(-c7nc(-c8ccccc8)[nH]c7*)cc6)cc5)cc4)cc3)cc2)cc1 (repeat unit) | 258.00 |
| *c1ccc(Oc2ccc3ccccc3c2-c2c(Oc3ccc(N4C(=O)c5ccc(NC(=O)Nc6ccc(-c7cc(-c8ccc(-c9ccccc9)cc8)cc(-c8ccc(NC(=O)Nc9ccc%10c(c9)C(=O)N(*)C%10=O)cc8)n7)cc6)cc5C4=O)cc3)ccc3ccccc23)cc1 (repeat unit) | 302.00 |
| *c1cccc(S(=O)(=O)NCCCCCNS(*)(=O)=O)c1 (repeat unit) | 74.00 |
| *c1cccc(S(=O)(=O)NCCNS(*)(=O)=O)c1 (repeat unit) | 107.00 |
